Results filed as inconclusive are left out. Activity calls are given as the source filed them.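 How the source made its calls: active means compounds lowering the luciferase signal with a fitted half-maximal dose at most twice their top valid dose (cut at about 30 µM in these data); inconclusive means flat fits with moderate signal loss, or poor fits; inactive means the rest.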
Test system: Clone20 osteoblast Shn3 3'UTR firefly luciferase, 24 h
Test: Shn3 3'UTR reporter inhibitors, dose response, cell-based, Clone20 osteoblasts, luminescence, dry powder, set 2 (AID 743417)

Structure (SMILES) | AC50
CCOc1ccc(-n2c(-c3ccccc3)c[n+]3c2CCC3)cc1 | 526 nM
CCOC(=O)N1CCN(c2ccc(S(=O)(=O)N(Cc3ccccc3)Cc3ccccc3)cn2)CC1 | 2590 nM
COc1ccc(CNc2ncnc3sccc23)cc1 | 1660 nM
C=C1C(=O)O[C@@H]2C[C@@H](C)[C@@H]3C=CC(=O)[C@@]3(C)[C@@H](OC(=O)CC(=O)O[C@H]3[C@@H]4C(=C)C(=O)O[C@@H]4C[C@@H](C)[C@@H]4C=CC(=O)[C@]43C)[C@H]12 | 292 nM
COCOCCn1cc(CN2CCS(=O)(=O)N(Cc3ccc(-c4ccc(Cl)c(Cl)c4)cc3)C(C(C)C)C2=O)nn1 (stereo unspecified) | 1350 nM
Cc1ccc2c(c1)nnn2C1CCN(S(=O)(=O)c2ccc(C(=O)N3C(C)CCCC3C)cc2)CC1 (stereo unspecified) | 695 nM
Cc1ccc(C(=O)Nc2cnc3ccccc3c2)cc1 | 4040 nM
CC(C)(C)n1nnnc1C(c1ccc(C(F)(F)F)cc1)N(Cc1ccc(F)cc1)Cc1ccco1 (stereo unspecified) | 10100 nM
CC[C@@H](C)[C@H](CNC)NC[C@@H](Cc1cccc2ccccc12)NCCc1cccc(C(F)(F)F)c1 | 8080 nM
Cc1ccc(NS(=O)(=O)c2ccc(C(=O)NC3CCN(Cc4ccccc4)CC3)cc2)cc1 | 4690 nM
c1ccc(Nc2nc(NCC3CCCO3)c3ccccc3n2)cc1 (stereo unspecified) | 21700 nM
OC1(c2cccc(C(F)(F)F)c2)CCN(c2ncnc3c2[nH]c2ccc(F)cc23)CC1 | 1870 nM
CC[n+]1c(/C=C/Nc2ccccc2)sc2ccccc21 | 2060 nM
CN(CC(=O)Nc1ccccc1Cl)C(=O)c1cccc(S(=O)(=O)N2CCN(c3ccccc3)CC2)c1 | 3840 nM
Cc1ccc(-c2nc3cccnc3o2)cc1NC(=O)COc1ccc(C(C)(C)C)cc1 | 10800 nM
Cc1cc(C)nc(/N=C(\N)Nc2ccc(-c3ccccc3)cc2)n1 | 4450 nM
CN(C)c1ncnc2c1C(c1ccccc1)C(C)(C)O2 (stereo unspecified) | > 70000 nM (inactive)
CN1CCN(S(=O)(=O)c2ccc(N(C)Cc3ccc(C(F)(F)F)cc3)c([N+](=O)[O-])c2)CC1 | 6300 nM
CN(C)C1=NC[C@H](Cc2ccccc2)N1CCCC1CCCC1 | 2630 nM
CCc1cc2c(N3CCN(c4ccccc4)CC3)ncnc2s1 | 6180 nM
Nc1nc(N)c2cc(S(=O)(=O)c3ccc4ccccc4c3)ccc2n1 | 3370 nM
CN(C)c1ccc(/C=C/c2nc3ccccc3s2)cc1 | 494 nM
O=S(=O)(/C(=C\c1ccc(C(F)(F)F)cc1)c1nc2ccccc2[nH]1)c1ccccc1 | 1850 nM
C=CCn1c(C)cc(C(=O)CN2C(=O)c3ccccc3S2(=O)=O)c1C | 974 nM
CC1Cc2cc(S(=O)(=O)N3CCN(c4ccc(Cl)cc4)CC3)ccc2N1C(=O)C1CC1 (stereo unspecified) | 4260 nM
C#CCN(C[C@@H]1[C@@H](OC(=O)NC2CCCC2)[C@@H](OC(=O)NC2CCCC2)Cn2c(=O)ccc(=O)n21)S(=O)(=O)c1ccc(C)cc1 | 12900 nM

Structure (SMILES) | AC50
O=c1[nH]c2ccccc2n1C1CCN(C(c2cccs2)c2nnnn2Cc2ccccc2)CC1 (stereo unspecified) | 2980 nM
CCN(CC)c1ccc(CNc2nc3ccccc3n2CCN2CCCCC2)cc1 | 2640 nM
COc1cc(C)c(C(=O)CC(=O)c2c(C)cc(OC)cc2C)c(C)c1 | 7400 nM
CCOC(=O)c1c(NC(=O)C2c3ccccc3Oc3ccccc32)sc(C(C)=O)c1C | 4670 nM
CC(C)N=C(N)N=C(N)Nc1ccc(Cl)cc1 | 370 nM
Cc1cc(NC(=O)CCN2CCN(C/C=C/c3ccccc3)CC2)ccc1Br | 10200 nM
CCOc1ccccc1Nc1cc(C)nc2ccccc12 | 8140 nM
CCN(CC)c1ccc2c(c1)oc(=O)c1c(Cl)cc(=O)oc12 | 2220 nM
CC(C)Oc1ccc(S(=O)(=O)N2CCCCC2)cc1NC(=O)CN1CCCC1c1cccs1 (stereo unspecified) | 7880 nM
Cc1cc(Nc2cccc([N+](=O)[O-])c2)n2c(nc3ccccc32)c1C#N | 1900 nM
OCCCNc1nccc(-c2cc(Nc3cccc(Cl)c3)ncn2)n1 | 2610 nM
COc1ccccc1-c1cc(C(F)(F)F)nc(S(C)(=O)=O)n1 | 4060 nM
CCn1c(N2CCN(S(=O)(=O)c3ccc(Cl)cc3)CC2)nc2ccccc21 | 9140 nM
CN1CCN(c2ccc(-c3ccc4ccccc4n3)cc2)CC1 | 2730 nM
NC(=O)CC(NC(=O)c1ccc(Br)cc1)c1ccc(N2CCC(Br)CC2)c([N+](=O)[O-])c1 (stereo unspecified) | 4190 nM
Oc1cccc(C(Nc2nccs2)c2ccc3cccnc3c2O)c1 (stereo unspecified) | 1670 nM
COc1ccc(NC(=O)Cn2nnc(-c3ccccc3NS(=O)(=O)c3ccccc3)n2)cc1 | 485 nM
Cc1cccc(CS(=O)(=O)c2ncc(Cl)c(C(=O)Nc3nnc(C(C)C)s3)n2)c1 | 1620 nM
CS(=O)(=O)c1ncc(Cl)c(C(=O)Nc2ccc(N3CCOCC3)cc2)n1 | 1210 nM
CC(=O)N1CCCc2cc(S(=O)(=O)N3CCCC(C(=O)N4CCN(c5cccc(Cl)c5)CC4)C3)ccc21 (stereo unspecified) | 1900 nM
COc1ccc(CCNc2c(C)c(C)nc3ncnn23)cc1 | 565 nM
CCCC(=O)NC(c1ccccc1Cl)c1ccc2cccnc2c1O (stereo unspecified) | 1210 nM
Cc1ccc(Nc2c(-c3ccccn3)nc3ccc(C)cn23)cc1 | 1740 nM
O=C(/C=C/c1ccc(F)cc1)NC(=S)NNC(=O)c1cnccn1 | 1390 nM
O=C(CSc1c2c(nc3ccc(Cl)cc13)CCCC2)NCc1ccco1 | 5710 nM

— PubChem BioAssay AID743417 (Broad Institute, 2014)
